The values that follow come from patent US9738610B2, “Indazole derivatives and uses thereof” (Whitehead Institute for Biomedical Research, priority 2012, dated 2017).

One series in a line: Plasma protein binding. The settings on record: human, plasma.
The subject of series [1] is NIH-3T3 mammalian fibroblasts. As to the kind of experiment: Counterscreen mammalian cell toxicity assay (fibroblast toxicity). The settings on record: for IC50: Mus musculus. Format: cell-based, murine.
A short description of another series: PBS solubility. Conditions: PBS, aqueous buffer.
The next series concerns C. albicans CaCi-8. Put plainly: microbe, parasite or virus in culture. Format: cell-based, Candida albicans. Conditions: Candida albicans. A digest of the protocol:
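Hits tested for chemosensitization of the fluconazole-resistant CaCi-8 strain, for inherent antifungal activity without fluconazole, and for mammalian fibroblast toxicity by fluorescence reporter. Geldanamycin plus fluconazole served as positive control; a Saccharomyces assay assigned mechanism to Hsp90, calcineurin or other pathways.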

For series [2], the system named is C. albicans CaCi-2. As to the kind of experiment: Secondary single-agent (no-fluconazole) activity assay. Format: cell-based, Candida albicans. Conditions: for IC50: Candida albicans. A digest of the protocol: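 C. albicans CaCi-2 in RPMI synthetic defined medium with 1% Pen/Strep, starting OD600 0.00015, exposed to compound alone (no fluconazole) for 48 h at 37 °C without agitation. Growth read as Alamar Blue fluorescence (1:200 final) after 2 h at room temperature.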

The nature of another series: PBS stability assay. The format is physicochemical. Conditions: 48-hour incubation, 23° C.
Series [3] concerns C. albicans CaCi-2. As to the kind of experiment: CaCi-2 growth inhibition in the presence of 8 μg/ml fluconazole (Alamar Blue). Format: cell-based, Candida albicans. The settings on record: Candida albicans.

Read-outs that look alike come from different tables or passages of the source. Some results are limits rather than exact numbers.

In the case of `COC(=O)Cn1nc(-c2cccc(OC)c2)c2ccccc21` [Compound I-4, methyl 2-(3-(3-methoxyphenyl)-1H-indazol-1-yl)acetate], the fraction unbound in the series “Plasma protein binding” is 0.05. Also, the “Dose-dependent activity against murine 3T3 fibroblasts” value in series [1] was “inactive”. Moreover, in series [1], the “Mammalian fibroblast IC50 relative to CaCi-2 IC50 with fluconazole” value is given as >59-fold. Besides, the IC50 was more than 26000 nM in series [1] (NIH3T3, read-out: Fibroblast toxicity IC50 (nM)); more than 26000 nM in series [1] (NIH3T3, read-out: IC50 in the mammalian fibroblast assay); 1200 nM with C. albicans CaCi-8 (CACI8, read-out: CaCi-8 IC50 with 8 μg/ml fluconazole, Table 12); 1210 nM in the series with C. albicans CaCi-8 (CACI8, read-out: CaCi-8 growth inhibition IC50 (nM), in the presence of fluconazole); more than 26000 nM in the series on C. albicans CaCi-2 [2] (CACI2, read-out: Activity without fluconazole IC50 (nM)); more than 26000 nM with C. albicans CaCi-2 [2] (CACI2, read-out: CaCi-2 IC50 without fluconazole). In addition, the IC50 stood at 440 nM in the series on C. albicans CaCi-2 [3] (CACI2, read-out: CaCi-2 IC50 with 8 μg/ml fluconazole) and 440 nM in the series with C. albicans CaCi-2 [3] (CACI2, read-out: CaCi-2 growth inhibition IC50 (nM)). For the same compound, the “Fold Selective* (Anti-target IC50/Target IC50)” value (in series [1] (fibroblast toxicity vs CaCi-2 growth inhibition); with C. albicans CaCi-2 [2] (activity without fluconazole vs CaCi-2 growth inhibition with fluconazole)) was 59 in each case. Moreover, the solubility in the series “PBS solubility” was less than 1 µM. The “Dose-dependent activity against C. albicans CaCi-2” value with C. albicans CaCi-2 [2] was “inactive”. In “PBS stability assay”, the “Stability in PBS solution, remaining” value is listed as more than 99%.
